The test concerns the target Voltage-dependent T-type calcium channel subunit alpha-1G (Homo sapiens, UniProt O43497). The test can be described thus: Antagonist activity against T-type calcium channel alpha1G. It is filed as functional.
Sequence of Voltage-dependent T-type calcium channel subunit alpha-1G (O43497 whole entry): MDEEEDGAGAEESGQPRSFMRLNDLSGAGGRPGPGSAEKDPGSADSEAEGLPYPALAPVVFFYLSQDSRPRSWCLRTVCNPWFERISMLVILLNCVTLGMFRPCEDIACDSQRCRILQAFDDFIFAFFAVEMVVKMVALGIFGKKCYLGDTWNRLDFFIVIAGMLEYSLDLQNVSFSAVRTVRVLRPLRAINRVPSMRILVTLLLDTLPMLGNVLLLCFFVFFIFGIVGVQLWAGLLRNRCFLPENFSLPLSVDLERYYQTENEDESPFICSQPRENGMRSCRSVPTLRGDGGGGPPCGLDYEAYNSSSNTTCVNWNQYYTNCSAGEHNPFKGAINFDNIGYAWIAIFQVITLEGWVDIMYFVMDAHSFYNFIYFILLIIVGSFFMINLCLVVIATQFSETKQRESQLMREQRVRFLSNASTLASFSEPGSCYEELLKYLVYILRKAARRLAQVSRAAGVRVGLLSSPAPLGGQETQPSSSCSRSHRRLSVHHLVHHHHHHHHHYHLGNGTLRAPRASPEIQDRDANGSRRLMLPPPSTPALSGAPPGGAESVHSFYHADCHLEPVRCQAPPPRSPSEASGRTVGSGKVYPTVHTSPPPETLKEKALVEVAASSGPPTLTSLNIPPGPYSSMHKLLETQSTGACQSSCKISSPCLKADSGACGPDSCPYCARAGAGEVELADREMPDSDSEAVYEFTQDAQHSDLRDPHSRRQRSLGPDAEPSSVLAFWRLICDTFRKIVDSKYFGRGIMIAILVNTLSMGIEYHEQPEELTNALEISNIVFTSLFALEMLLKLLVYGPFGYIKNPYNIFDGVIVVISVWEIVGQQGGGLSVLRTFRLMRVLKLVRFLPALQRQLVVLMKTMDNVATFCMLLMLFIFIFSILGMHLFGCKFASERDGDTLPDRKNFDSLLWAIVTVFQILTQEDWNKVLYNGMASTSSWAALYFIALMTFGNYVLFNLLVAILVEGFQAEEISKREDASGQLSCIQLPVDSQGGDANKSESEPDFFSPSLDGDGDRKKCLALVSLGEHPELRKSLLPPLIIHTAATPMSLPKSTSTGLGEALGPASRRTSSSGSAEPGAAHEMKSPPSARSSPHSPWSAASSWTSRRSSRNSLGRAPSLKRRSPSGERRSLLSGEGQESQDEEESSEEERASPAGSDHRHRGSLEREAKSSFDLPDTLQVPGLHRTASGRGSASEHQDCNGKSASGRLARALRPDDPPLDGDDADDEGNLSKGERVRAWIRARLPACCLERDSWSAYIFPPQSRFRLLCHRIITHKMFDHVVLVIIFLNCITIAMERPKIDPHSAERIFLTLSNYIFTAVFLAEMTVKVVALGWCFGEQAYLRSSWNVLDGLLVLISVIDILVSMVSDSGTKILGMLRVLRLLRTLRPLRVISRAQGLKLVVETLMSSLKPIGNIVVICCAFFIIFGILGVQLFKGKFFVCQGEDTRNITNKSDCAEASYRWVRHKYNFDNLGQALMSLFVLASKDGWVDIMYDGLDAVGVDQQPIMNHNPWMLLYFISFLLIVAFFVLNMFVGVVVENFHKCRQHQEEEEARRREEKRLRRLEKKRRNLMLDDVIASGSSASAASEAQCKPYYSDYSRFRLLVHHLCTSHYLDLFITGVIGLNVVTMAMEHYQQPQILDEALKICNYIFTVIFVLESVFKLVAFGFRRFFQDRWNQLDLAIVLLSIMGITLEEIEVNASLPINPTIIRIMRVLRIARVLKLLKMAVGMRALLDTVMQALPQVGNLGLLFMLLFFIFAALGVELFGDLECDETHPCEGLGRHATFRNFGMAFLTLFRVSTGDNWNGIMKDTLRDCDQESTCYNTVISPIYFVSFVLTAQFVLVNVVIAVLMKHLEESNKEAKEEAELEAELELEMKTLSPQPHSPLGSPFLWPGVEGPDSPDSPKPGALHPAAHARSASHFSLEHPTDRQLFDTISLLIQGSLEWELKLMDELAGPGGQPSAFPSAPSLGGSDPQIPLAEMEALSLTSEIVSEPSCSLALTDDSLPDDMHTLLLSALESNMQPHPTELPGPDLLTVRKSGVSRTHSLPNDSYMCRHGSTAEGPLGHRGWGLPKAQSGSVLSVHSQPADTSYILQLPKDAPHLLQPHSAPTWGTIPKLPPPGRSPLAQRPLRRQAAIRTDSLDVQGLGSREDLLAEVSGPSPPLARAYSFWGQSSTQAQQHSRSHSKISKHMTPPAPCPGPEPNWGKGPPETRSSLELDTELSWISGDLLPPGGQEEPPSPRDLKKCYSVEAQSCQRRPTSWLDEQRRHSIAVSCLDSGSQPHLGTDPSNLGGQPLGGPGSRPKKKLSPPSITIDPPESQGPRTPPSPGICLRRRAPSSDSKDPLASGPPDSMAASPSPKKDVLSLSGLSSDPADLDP
With `COc1ccccc1Cn1c(=O)[nH]c2cc(C(=O)NCCN3CCCCC3)ccc2c1=O`, the IC50 entry was “Not Active”.
The value for `COc1ccc(Cn2c(=O)[nH]c3cc(C(=O)NCCN4CCCCC4)ccc3c2=O)cc1` was “Not Active”; that for `O=C(NCCN1CCCCC1)c1ccc2c(=O)n(Cc3ccccc3Cl)c(=O)[nH]c2c1` was “Not Active”.
On to `COc1cccc(Cn2c(=O)[nH]c3cc(C(=O)NCCN4CCCCC4)ccc3c2=O)c1`, for which the IC50 entry is recorded as “Not Active”.
The value for `O=C(NCCN1CCOCC1)c1ccc2c(=O)n(Cc3ccc(F)cc3)c(=O)[nH]c2c1` was “Not Active”.
For `CC1CCCCN1CCNC(=O)c1ccc2c(=O)n(Cc3ccc(Cl)cc3)c(=O)[nH]c2c1` (stereo not drawn), the IC50 result is “Not Active”.
The value for `CC1CCCCN1CCCNC(=O)c1ccc2c(=O)n(Cc3ccc(Cl)cc3)c(=O)[nH]c2c1` (stereo not drawn) was “Not Active”.
With `O=C(NCCCN1CCOCC1)c1ccc2c(=O)n(Cc3ccc(Cl)cc3)c(=O)[nH]c2c1`, the IC50 result was “Not Active”.
The value for `O=C(NCCN1CCCCC1)c1ccc2c(=O)n(-c3ccc(F)cc3)c(=O)[nH]c2c1` was “Not Active”.
Take `CC1CCCCN1CCCNC(=O)c1ccc2c(=O)n(C3CCCCC3)c(=O)[nH]c2c1` (stereo not drawn): the IC50 entry was “Not Active”.
`O=C(NCCN1CCOCC1)c1ccc2c(=O)n(Cc3ccc(Cl)cc3)c(=O)[nH]c2c1`: the IC50 result is recorded as “Not Active”.
Then `COc1ccc(-n2c(=O)[nH]c3cc(C(=O)NCCN4CCCCC4)ccc3c2=O)cc1`, with “Not Active”; and `Cn1c(=O)[nH]c2cc(C(=O)NCCN3CCCCC3)ccc2c1=O`, with “Not Active”.
The value for `O=C(NCCN1CCCCC1)c1ccc2c(=O)n(Cc3ccccc3F)c(=O)[nH]c2c1` was “Not Active”; that for `O=C(NCCN1CCCCC1)c1ccc2c(=O)n(C3CCCCC3)c(=O)[nH]c2c1` was “Not Active”; that for `CCCn1c(=O)[nH]c2cc(C(=O)NCCN3CCCCC3)ccc2c1=O` was “Not Active”.
The value for `O=C(NCCN1CCOCC1)c1ccc2c(=O)n(-c3ccc(F)cc3)c(=O)[nH]c2c1` was “Not Active”; that for `CCC1CCCCN1CCCNC(=O)c1ccc2c(=O)n(Cc3ccc(Cl)cc3)c(=O)[nH]c2c1` (stereo not drawn) was “Not Active”.
